{"source": "patent US20250250298A1", "about": "“ONCOLYTIC PEPTIDE AND USE THEREOF” (Rise Biopharmaceuticals Inc., priority 2022, published 2025)", "key": {"[1]": {"tested_on": "PC9 (Human non-small cell lung cancer cell)", "experiment": "MTT cytotoxicity, PC9", "type": "cell-based", "details": "PC9, 24 hours incubation", "excerpt": "(§1) The MTT assay is a colorimetric method for measuring the activity of enzymes in living cells that reduces Thiazolyl blue tetrazolium bromide (MTT) to formazan dyes showing a purple color. In this embodiment, a colorimetric 3-(4.5-dimethylthiazol-2-yl)-2.5-diphenyltetrazodium bromide (MTT) viability assay was used to assess the in vitro cytotoxicity of oncolytic peptides.\n(§2) The half inhibition concentration (IC50) is the concentration required by the oncolytic peptides to reach fifty percent inhibition. In one embodiment, the oncolytic peptides were used for IC50 test via MTT colorimetric assay.\n(§3) Human lung cancer lines PC9 and A549 and murine pancreatic cancer cell line Panc02 were cultured in RPMI medium supplemented with 10% fetal bovine serum and antibiotic in this embodiment. Additionally, murine hepatoma cell line Hepa 1-6, murine melanoma cell line B16-F10, murine fibrosarcoma cell line MN-11, murine mammary cancer cell line E0771 and human diploid fibroblast (HFW) were cultured in DMEM medium supplemented with 10% fetal bovine serum and antibiotic. Cells were cultured in a humidified incubator containing 5% CO2 at 37° C.\n(§4) All cancer cell lines were seeded in a 96-well plate with a concentration of 5000-8000 cells/100 μl/well and incubated for 24 hrs. After medium was removed, 100 μl fresh medium containing peptide (ranging from 50 μM to 0.8 μM) was added to the wells. Following 24 hours incubation, fresh medium with MTT (0.5 mg/ml) was replaced and incubated for 3 hours. After medium/MTT was removed, DMSO was added at 100 μl for dissolving the formazan crystal. Cell survival rate was calculated by measuring the absorbance at 540 nm using a Multi-labeled Microplate Reader (Sunrise™, TECAN)."}, "[2]": {"experiment": "Peptide stability in serum", "type": "in vitro ADME", "details": "25% (vol/vol) bovine calf serum", "experimental": "Since this kind of peptide is highly toxic, the hope is that the peptide can be decomposed after inducing cancer cells to release danger-associated molecular patterns (DAMPs), and will not stay in the body for too long. After exposure to 25% (vol/vol) bovine calf serum, the residues of peptides were analyzed by liquid chromatography, and the stability at different time points was calculated."}, "MN-11 fibrosarcoma": {"tested_on": "MN-11 fibrosarcoma", "type": "in vivo", "details": "MN-11 tumor-bearing C57BL/6 mice", "experimental": "FIGS. 4A-4B are schematic diagrams of MN-11 fibrosarcoma experiments. FIG. 4A: The right flank of the mouse was administrated with SEQ ID NO:9, and the left flank of the mouse was untreated (tumor only). […] Palpable tumors (100 mm^3) were injected (IT.) with single doses of SEQ ID NO:9 dissolved in PBS (1.0 mg peptide/50 μl PBS) once a day for 5 consecutive days, and the vehicle control was saline only (0.9% NaCl).\nFemale C57BL/6 mice (4- to 6-week old) as allogeneic model animals were purchased from BioLASCO Taiwan Co., Ltd. and maintained in a specific pathogen-free and controlled environment. During the experiments, female mice, weighing 18.0-24.0 g each, were kept in groups of 4 to 6 animals per cage under climate-controlled conditions, with 12 h light/dark cycles and an ambient temperature. The mice were housed in an enriched individually ventilated cage (IVC) system with free access to standard rodent chow and water ad libitum. The animals were anesthetized during the experimental procedures with 2.5% isoflurane gas. The animals were monitored daily. […]\nTumor size was measured 3 times a week using a caliper, and the volume of tumors was calculated using the following formula: Tumor size (mm^3)=0.5×(width^2×length). […] The survival rates of tumor-bearing mice were observed and recorded continuously until all animals died. […]"}, "[3]": {"tested_on": "MN-11 (Murine fibrosarcoma)", "experiment": "MTT cytotoxicity, MN-11", "type": "cell-based", "details": "MN-11, 24 hours incubation", "excerpt": "as §1, §2, §3, §4"}, "[4]": {"tested_on": "HCT-15 (Human colorectal cancer)", "experiment": "MTT cytotoxicity, HCT-15", "type": "cell-based", "details": "HCT-15, 24 hours incubation", "excerpt": "as §1, §2, §4"}, "[5]": {"tested_on": "HUVEC (Human Umbilical Vein Endothelial (Cell))", "experiment": "MTT cytotoxicity, HUVEC", "type": "cell-based", "details": "24 hours incubation", "excerpt": "as §1, §2, §4"}, "[6]": {"tested_on": "Hepa I-6 (Murine hepatocellular carcinoma)", "experiment": "MTT cytotoxicity, Hepa 1-6", "type": "cell-based", "details": "Hepa I-6, 24 hours incubation", "excerpt": "as §1, §2, §3, §4"}}, "note": "Where a SMILES comes first, the peptide text is derived from it."}
{"smiles": "CC(C)C[C@H](NC(=O)[C@H](Cc1ccc2ccccc2c1)NC(=O)[C@H](CCCCN)NC(=O)[C@H](CC(C)C)NC(=O)[C@H](Cc1c[nH]c2ccccc12)NC(=O)[C@H](CCCCN)NC(=O)[C@H](CCCNC(=N)N)NC(=O)[C@H](Cc1c[nH]c2ccccc12)NC(=O)[C@H](CCCNC(=N)N)NC(=O)[C@H](CCCNC(=N)N)NC(=O)[C@H](CCCCN)NC(=O)[C@H](CCCCN)NC(=O)[C@H](CCCCN)NC(=O)[C@@H](N)CCCCN)C(=O)N[C@@H](C)C(=O)N[C@@H](CCCCN)C(N)=O", "note": "[SEQ ID NO: 9, KKKK-RR-WRK-WLK-Nal-LA-K-NH2] (HELM PEPTIDE1{K.K.K.K.R.R.W.R.K.W.L.K.[O=C([C@H](Cc1ccc2ccccc2c1)N[*:1])[*:2]].L.A.K.[am]}$$$$V2.0; N-terminus assumed)", "values": [{"measurement": "IC50", "setting": "[1]", "value": 3.02, "unit": "µM"}, {"measurement": "Serum stability (residual peptide)", "setting": "[2]; 0 hr", "value": 100.00, "unit": "%"}, {"measurement": "remaining at 0.5 h", "setting": "[2]; 0.5 hr, read-out: Serum stability (residual peptide)", "value": 90.7, "unit": "%"}, {"measurement": "remaining at 1 h", "setting": "[2]; 1 hr, read-out: Serum stability (residual peptide)", "value": 76.2, "unit": "%"}, {"measurement": "remaining at 2 h", "setting": "[2]; 2 hr, read-out: Serum stability (residual peptide)", "value": 77.9, "unit": "%"}, {"measurement": "remaining at 4 h", "setting": "[2]; 4 hr, read-out: Serum stability (residual peptide)", "value": 70.9, "unit": "%"}, {"measurement": "remaining at 6 h", "setting": "[2]; 6 hr, read-out: Serum stability (residual peptide)", "value": 74.2, "unit": "%"}, {"measurement": "remaining at 8 h", "setting": "[2]; 8 hr, read-out: Serum stability (residual peptide)", "value": 55.8, "unit": "%"}, {"measurement": "Survival (lifespan)", "setting": "MN-11 fibrosarcoma; IT. 1.0 mg once a day for 5 days, vs untreated controls", "value": "extended the lifespan"}, {"measurement": "Tumor growth, treated tumor (right side)", "setting": "MN-11 fibrosarcoma; IT. 1.0 mg peptide/50 μl PBS once a day for 5 consecutive days, vs saline control", "value": "significantly inhibited unilateral (right side) tumor growth"}, {"measurement": "IC50", "setting": "[3]", "value": 2.9, "unit": "µM"}, {"measurement": "IC50", "setting": "[4]", "value": 2.42, "unit": "µM"}, {"measurement": "IC50", "setting": "[5]", "value": 6.32, "unit": "µM"}, {"measurement": "IC50", "setting": "[6]", "value": 1.69, "unit": "µM"}]}
